Results on two compounds are retold here after patent US8497133B1, “Terpene media compositions for eluting compounds from matrices and methods for making and using them” (Medtronic MiniMed, Inc., priority 2009, dated 2013).

Each structure is given as a SMILES string. Read-outs that look alike come from different tables or passages of the source.

For data set [1] the following is noted: cited from earlier work.
The format of data set [2] is physicochemical. The protocol:
To evaluate buffers with different pH, Dexamethasone sodium phosphate can be dissolved in an elution media (e.g. one of the different embodiments of the invention disclosed herein). […] This concentration was about 10 times the concentration that might be observed if the drug from the typical device was completely eluted in about 75 mL of media.

Data set [3] can be described thus: Elution of steroid from drug eluting leads/electrodes in conventional media (PBS without additives). The format is physicochemical. The settings on record: conventional media systems, e.g. media with just a surfactant; result in words. From the text: The percent elution was less than 7% in 10 days from the controlled-release device (CRD) leads when PBS ([…]) without any additives was used.

As to `OCc1ccccc1` [Benzyl alcohol, Phenylmethanol], in data set [1], the solubility in water is reported as 4 g/100 mL.
With `C[C@@H]1C[C@H]2[C@@H]3CCC4=CC(=O)C=C[C@]4(C)[C@@]3(F)[C@@H](O)C[C@]2(C)[C@@]1(O)C(=O)COP(=O)(O)O` [Dexamethasone sodium phosphate], the “stability with respect to pH (order)” value in data set [2] is reported as “pH 4>pH 7.5>pH 9”. Also, the solubility in water result in data set [1] (result in words, listed as dexamethasone sodium phosphate) is listed as “water soluble”; in data set [1] (result in words) it was “freely soluble”. In addition, in data set [3], the “elution in conventional media/solvents” value is reported as “minimal”.
